Consider 44 molecules from patent US20250170112A1, “ADENOSINE LIGANDS FOR THE TREATMENT OF NEUROLOGICAL DISORDERS” (Lucy Therapeutics, Inc., priority 2022, published 2025).

For assay [1], the target named is T1, human Adenosine A1 receptor (Homo sapiens, UniProt P30542).
T1 construct: host or cells: CHO-K1
T1 sequence (P30542 1-326): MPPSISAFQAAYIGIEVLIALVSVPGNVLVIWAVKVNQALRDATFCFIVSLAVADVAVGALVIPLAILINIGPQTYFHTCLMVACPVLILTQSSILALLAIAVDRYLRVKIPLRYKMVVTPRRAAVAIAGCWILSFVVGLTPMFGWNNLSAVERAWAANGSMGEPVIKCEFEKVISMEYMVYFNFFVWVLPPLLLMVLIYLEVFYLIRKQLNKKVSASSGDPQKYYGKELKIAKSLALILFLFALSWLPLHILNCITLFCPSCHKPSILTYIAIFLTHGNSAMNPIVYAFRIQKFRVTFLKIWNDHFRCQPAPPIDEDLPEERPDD
The assay is described as follows: GTPγS scintillation proximity assay, agonist testing. The conditions noted are these: agonist activity; membrane extracts of CHO-K1 cells expressing recombinant human A1; read-out: A1AR EC50. It counts as biochemical. The protocol: (§1) SPA ^35S-GTPγS experiments were conducted with Epics Therapeutics membrane preparations. cAMP HTRF assays were conducted with recombinant cell lines.
• Assay buffer: 20 mM HEPES pH 7.4; 100 mM NaCl, 10 μg/mL saponin, MgCl2 at optimized concentration for the specific receptor. • Membranes: membrane extracts prepared from CHO-K1 cells expressing recombinant human Adenosine A1 receptor, thawed on ice, diluted in assay buffer and kept on ice. • GDP: diluted in assay buffer at the optimized concentration for the specific receptor Beads: PVT-WGA (Perkin Elmer, RPNQ001), diluted in assay buffer at 50 mg/mL (0.5 mg/10 μL) • GTPγ^35S: (Perkin Elmer, NEG030X), diluted in assay buffer for a final 0.1 nM assay concentration
Protocol for agonist testing: membranes are mixed with GDP (volume:volume). In parallel, GTPγ[^35S] is mixed with the beads (volume:volume) just before starting the reaction. The following reagents are successively added in the wells of an Optiplate (Perkin Elmer): 50 μL of test or reference ligand, 25 μL of the membranes:GDP mix, and 25 μL of the GTPγ[^35S]:beads mix. The plates are covered with a top seal, mixed on an orbital shaker for 2 min, and then incubated for 1 hour at room temperature. Then the plates are centrifuged for 10 min at 2000 rpm, incubated at room temperature and counted for 30 sec/well with a PerkinElmer TopCount™ reader. • Conditions for the GTPγS scintillation proximity assay are shown in Table 14.
(In general: Scintillation proximity formats need no separation of bound from free tracer.)

A further assay concerns the target T2, human A2B (Homo sapiens, UniProt P29275).
T2 construct: expressed in transfected cells; host or cells: HEK293
T2 sequence (P29275 1-332): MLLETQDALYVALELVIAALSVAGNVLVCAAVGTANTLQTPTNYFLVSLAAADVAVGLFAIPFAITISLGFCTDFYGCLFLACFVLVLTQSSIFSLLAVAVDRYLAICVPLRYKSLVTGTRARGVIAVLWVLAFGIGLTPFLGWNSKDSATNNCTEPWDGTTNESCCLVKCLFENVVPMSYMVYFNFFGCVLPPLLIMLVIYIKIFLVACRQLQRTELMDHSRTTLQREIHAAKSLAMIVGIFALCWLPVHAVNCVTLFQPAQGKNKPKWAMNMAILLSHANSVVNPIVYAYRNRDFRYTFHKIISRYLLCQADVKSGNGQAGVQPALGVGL
The assay is described as follows: cAMP HTRF assay for Gs coupled receptor, agonist test. It counts as cell-based. The conditions noted are these: agonist activity; HEK293 cells expressing recombinant human A2B; read-out: A2BAR EC50. As to the method: as §1
Dose response curves are performed in parallel with the reference compounds.
For agonist test (96 well): 12 μL of cells are mixed with 12 μL of the test compound at increasing concentrations and then incubated 30 min at room temperature. After addition of the lysis buffer containing cAMP-d2 and anti-cAMP cryptate detection reagents, plates are incubated 1 hour incubation at room temperature, and fluorescence ratios are measured according to the manufacturer specification, with the HTRF kit.
(In general: In TR-FRET formats the signal depends on donor and acceptor labels being close together.)

As usually defined, the EC50 is the concentration needed to bring the measured effect to its halfway point.

A value given as a limit tells only on which side of the number the result lay.

With `N#Cc1c(N)nc(SCc2cncnc2)c(C#N)c1-c1ccc(OCCO)cc1` [Compound 175], the figures for the EC50 (in assay [1]; at human A2B) were 20 nM and 0.9 nM, respectively.
Taken in the same sequence, the figures for `CNc1nc(SCc2cccnc2)c(C#N)c(-c2ccc(OCCOC)cc2)c1C#N` [Compound 284] were over 10000 nM and over 10000 nM.
Taken in the same sequence, the figures for `N#Cc1c(N)nc(SCCC(F)(F)F)c(C#N)c1-c1ccc(OC2CCCOC2)cc1` (stereo not shown) [Compound 325] were over 10000 nM and over 10000 nM.
Taken in the same sequence, the figures for `CCOCCSc1nc(N)c(C#N)c(-c2ccc(OCCO)cc2)c1C#N` [Compound 27] were 31.4 nM and 65.9 nM.
On to `N#Cc1c(N)nc(SCc2cccnc2)c(C#N)c1-c1ccc(OC2COC2)cc1` [Compound 66], for which the EC50 was determined as 2.5 nM in assay [1] and 0.2 nM at human A2B.
`N#Cc1c(N)nc(SCc2cccnc2)c(C#N)c1-c1ccc(O[C@H]2CCOC2)cc1` [Compound 240]: the EC50 in assay [1] amounted to 0.903 nM; at human A2B, 0.335 nM.
With `N#Cc1c(N)nc(SCC2CCCO2)c(C#N)c1-c1ccc(OCCO)cc1` (stereo not shown) [Compound 141], the EC50 in assay [1] amounted to 569 nM; at human A2B, 149 nM.
In the case of `N#Cc1c(SCc2cccnc2)nc(N2CC(O)C2)c(C#N)c1-c1ccc(OC2COC2)cc1` [Compound 268], the EC50 in assay [1] came out at 1.16 nM; on human A2B, 56.7 nM.
Taken in the same sequence, the figures for `COCCOc1ccc(-c2c(C#N)c(N)nc(SCC(N)=O)c2C#N)cc1` [Compound 136] were 768 nM and 87 nM.
Turning to `COCCOc1ccc(-c2c(C#N)c(N)nc(SCC3CCO3)c2C#N)cc1` (stereo not shown) [Compound 112], the EC50 in assay [1] is 944 nM; at human A2B, over 10000 nM.
For the molecule `N#Cc1c(N)nc(OC[C@H]2CCOC2)c(C#N)c1-c1ccc(OC2COC2)cc1` [Compound 290], the EC50 was 265 nM in assay [1] and over 10000 nM at human A2B.
Consider `N#Cc1c(N)nc(SCc2cncc3[nH]ccc23)c(C#N)c1-c1ccc(OCCO)cc1` [Compound 2], for which the EC50 in assay [1] was over 10000 nM; at human A2B, 0.28 nM.
With `CC(C)(O)COc1ccc(-c2c(C#N)c(SCc3cccnc3)nc(N3CCCC3)c2C#N)cc1` [Compound 50], the EC50 in assay [1] was 294 nM; at human A2B, 94.2 nM.
On to `N#Cc1c(N)nc(SCc2ccnnc2)c(C#N)c1-c1ccc(OCCO)cc1` [Compound 162], for which the EC50 came to 11 nM in assay [1] and 0.7 nM on human A2B.
Taken in the same sequence, the figures for `N#Cc1c(N)nc(SCCC(F)(F)F)c(C#N)c1-c1ccc(OCCO)cc1` [Compound 113] were 316 nM and at least 10000 nM.
On to `COCCOc1ccc(-c2c(C#N)c(N)nc(S[C@H](C)c3cccnc3)c2C#N)cc1` [Compound 248], for which the EC50 was 276 nM in assay [1] and over 10000 nM on human A2B.
Take `COCCOc1ccc(-c2c(C#N)c(N)nc(S[C@@H](C)c3ccccn3)c2C#N)cc1` [Compound 244]: the EC50 (in assay [1]; on human A2B) was over 10000 nM in each case.
For the molecule `N#Cc1c(N)nc(OCc2cccnc2)c(C#N)c1-c1ccc(OCCO)cc1` [Compound 159], the figures for the EC50 (in assay [1]; at human A2B) were 41 nM and 3.3 nM, respectively.
For the molecule `N#Cc1c(SCCC(F)(F)F)nc(N2CCCC2)c(C#N)c1-c1ccc(OCCO)cc1` [Compound 104], the EC50 in assay [1] was 1790 nM; at human A2B, over 10000 nM.
Regarding `N#Cc1c(N)nc(SCc2cccc3[nH]cnc23)c(C#N)c1-c1ccc(OCCO)cc1` [Compound 5], the EC50 in assay [1] was over 10000 nM; at human A2B it was 13.4 nM.
Turning to `CNc1nc(OCC2COC2)c(C#N)c(-c2ccc(OC3COC3)cc2)c1C#N` [Compound 288], the EC50 in assay [1] was 308 nM; on human A2B, over 10000 nM.
Regarding `CNc1nc(SCc2cccnc2)c(C#N)c(-c2ccc(OC(F)(F)CO)cc2)c1C#N` [Compound 260], the results for the EC50 (in assay [1]; on human A2B) were 3.38 nM and 33.7 nM, respectively.
As to `COCCOc1ccc(-c2c(C#N)c(N)nc(SCc3ccncn3)c2C#N)cc1` [Compound 232], the values for the EC50 (in assay [1]; on human A2B) were 1.51 nM and over 10000 nM, respectively.
Taken in the same sequence, the figures for `COCCOc1ccc(-c2c(C#N)c(SCCO)nc(N3CCCC3)c2C#N)cc1` [Compound 117] were 997 nM and over 10000 nM.
Taken in the same sequence, the figures for `N#Cc1c(N)nc(SCc2ccnc3[nH]ccc23)c(C#N)c1-c1ccc(OCCO)cc1` [Compound 14] were 29.2 nM and 81.7 nM.
As for `N#Cc1c(SCc2cccnn2)nc(N2CCC2)c(C#N)c1-c1ccc(OCCO)cc1` [Compound 20], the EC50 in assay [1] came out at 14.1 nM; at human A2B, 3 nM.
For the molecule `CNc1nc(SCc2cccnc2)c(C#N)c(-c2ccc(OCCOC(F)F)cc2)c1C#N` [Compound 258], the EC50 (in assay [1]; on human A2B) was over 10000 nM throughout.
For `N#Cc1cnc(SCc2cccnc2)c(C#N)c1-c1ccc(OCCO)cc1` [Compound 84], the figures for the 50% effective concentration (EC50) (in assay [1]; on human A2B) were 44 nM and 6.8 nM, respectively.
Taken in the same sequence, the figures for `COCCOc1ccc(-c2c(C#N)c(SCc3cccnc3)nc(C3CC3)c2C#N)cc1` [Compound 46] were 110 nM and over 10000 nM.
Turning to `N#Cc1c(N)nc(SCC2COCCO2)c(C#N)c1-c1ccc(OC2COC2)cc1` (stereo not shown) [Compound 301], the EC50 in assay [1] is 228 nM; on human A2B, over 10000 nM.
In the case of `COCCOc1ccc(-c2c(C#N)c(SCc3cncnc3)nc(N3CCC3)c2C#N)cc1` [Compound 30], the EC50 was 3090 nM in assay [1] and over 10000 nM on human A2B.
Taken in the same sequence, the figures for `COCCOc1ccc(-c2c(C#N)c(N)nc(SCc3ccnc4[nH]ccc34)c2C#N)cc1` [Compound 4] were over 10000 nM and 2410 nM.
As to `N#Cc1c(N)nc(SCC2(O)COC2)c(C#N)c1-c1ccc(OC2COC2)cc1` [Compound 315], the EC50 in assay [1] is 81.8 nM; on human A2B, over 10000 nM.
Take `N#Cc1c(N)nc(SCC2CCO2)c(C#N)c1-c1ccc(OCCO)cc1` (stereo not shown) [Compound 110]: the figures for the EC50 (in assay [1]; at human A2B) were 253 nM and 177 nM, respectively.
With `COCCOc1ccc(-c2c(C#N)c(SCc3cccnc3)nc(N3CC(F)(F)C3)c2C#N)cc1` [Compound 276], the EC50 in assay [1] was 98.8 nM; on human A2B, over 10000 nM.
Take `N#Cc1c(N)nc(OCC2CCOCC2)c(C#N)c1-c1ccc(OC2COC2)cc1` [Compound 298]: the EC50 is 229 nM in assay [1] and over 10000 nM on human A2B.
Taken in the same sequence, the figures for `CC(O)COc1ccc(-c2c(C#N)c(N)nc(SCC3COC3)c2C#N)cc1` (stereo not shown) [Compound 316] were 10.8 nM and 305 nM.
Consider `N#Cc1c(N)nc(SCC2COC2)c(C#N)c1-c1ccc(OC2CCOC2)cc1` (stereo not shown) [Compound 219], for which the EC50 in assay [1] was 154 nM; at human A2B, over 10000 nM.
Regarding `N#Cc1c(N)nc(SC[C@@H]2CCOC2)c(C#N)c1-c1ccc(OC2COC2)cc1` [Compound 228], the EC50 was 1460 nM in assay [1] and 7550 nM at human A2B.
Taken in the same sequence, the figures for `CC(Sc1nc(N)c(C#N)c(-c2ccc(OC3COC3)cc2)c1C#N)C1COC1` (stereo not shown) [Compound 285] were 958 nM and over 10000 nM.
Regarding `N#Cc1c(SCC2COC2)nc(N2CCC2)c(C#N)c1-c1ccc(OC2COC2)cc1` [Compound 293], the EC50 in assay [1] was 73.2 nM; on human A2B, over 10000 nM.
With `COCCOc1ccc(-c2c(C#N)c(SCc3cnccn3)nc(N3CC(F)C3)c2C#N)cc1` [Compound 252], the EC50 (in assay [1]; at human A2B) was over 10000 nM throughout.
For the molecule `N#Cc1c(N)nc(SCc2c[nH]c3ccccc23)c(C#N)c1-c1ccc(OCCO)cc1` [Compound 206], the EC50 in assay [1] was found to be 981 nM; on human A2B, 495 nM.
`CC1(CSc2nc(N)c(C#N)c(-c3ccc(OC4COC4)cc3)c2C#N)COC1` [Compound 327]: the half-maximal effective concentration (EC50) in assay [1] was 22.1 nM; on human A2B, over 10000 nM.
